In patent US20050209157A1, “Short bioactive peptides and methods for their use” (priority 2001, published 2005):
≈ marks a conversion by molar mass, not a printed value. No end group written: not given here.

Experiments:
in vitro [1] = settings: human, WI38 normal lung fibroblast cells, WI38 LD50, Table 41, lower part
Protocol: (§8) Viability of cells is determined by the dye response. In the following procedure, approximately 1.5×10^4 cells per well were added and viability was determined with the cells in a semi-confluent state. The assay was performed in a 96-well microtiter plate. After addition of peptide, the plate was set for 24 hours. MTT (5 mg/ml in phenol red-free RPMI-1640, 20 μl) was added to each well including positive control wells untreated with peptide. The plate was incubated at 37° C. for 4 hours. The liquid contents of each well was removed, and isopropanol with 0.1 M HCl (100 μl) was added to each well. The plate was sealed with parafilm to prevent evaporation of the isopropanol. The plate is allowed to rest for 5-10 minutes in order to solubilize the precipitate. Purified water (100 μl) was added to each well. Absorbance was determined with an ELISA Reader instrument. Color intensity at 540 nm is proportional to viability of cells.
(§9) WI38 (ATCC No. CCL75) is a normal fibroblast line of lung diploid cells, MCF7 (ATCC No. HTB22) is a breast adenocarcinoma tumor cell line, SW480 (ATCC No. CCL228) is a colon adenocarcinoma tumor cell line, BMKC is a cloned melanoma line derived from Bowes melanoma line HMCB (ATCC No. CRL9607), H1299 (ATCC No. CRL5803) is a lung large cell carcinoma tumor line, HeLaS3 (ATCC No. CCL2.2) is a cervical epitheleal carcinoma tumor cell line, and PC3 (ATCC No. CRL1435) is a prostate adenocarcinoma tumor cell line.

[2] = test system: human red blood cells (RBC); experiment: in vitro; assay type: cell-based; settings: Table 42
in vitro [3] = assay type: cell-based, human; settings: human, human red blood cells, pH 7, Table 41, lower part; read-out: RBC LD50
WI38 = settings: Table 42
Protocol: as §8, §9

human leukocytes (WBC) = experiment: Leukocyte (WBC) inhibition, toxicity LD50; assay type: cell-based; settings: Table 42
Protocol: (§1) In vitro viability of human leukocyte cells in the presence of different peptides at different concentrations was determined by an Alamar Blue protocol. Alamar Blue (Promega, Madison, Wis.) is an indicator dye, formulated to measure quantitatively the proliferation and cytotoxicity of the cells. The dye consists of an oxidation-reduction (redox) indicator that yields a calorimetric change and a fluorescent signal in response to cellular metabolic activity.
(§2) Assay protocol: Blood from a human was drawn and centrifuged at 1500 rpm for 15 minutes at room temperature. The buffy coat cells at the plasma-red blood cell interface were aspirated. Buffy coat cells (mainly lymphocyte cells) were then transferred into 15 ml centrifuge tubes containing 5 ml of RPMI-1640 medium+10% Fetal Bovine Serum (Gibco, Grand Island, N.Y.). Additional medium was added to the tubes to bring the volume up to 10 ml. The buffy coat suspension was then carefully layered on 5 ml of Histopaque (Sigma Chemical Co., St. Louis, Mo.) and centrifuged at 1500 rpm for 30 minutes at room temperature. The interface which is mostly PBMCs (peripheral mononuclear cells) was aspirated and transferred to a 15 ml conical centrifuge tube and, resuspended in 2 ml cold RPMI-1640 and brought up to 15 ml with cold RPMI-1640 medium. Cells were centrifuged at 1500 rpm for 10 minutes. The supernatant was then aspirated and discarded. The cell pellet was re-suspended in 1 ml of cold RPMI 1640 and brought up to 15 ml with RPMI medium. This step was repeated twice, except that in the last step, the cells were resuspended with 1 ml of cold RPMI-1640 medium and cell counts were performed with a hemocytometer according to the Sigma cell culture catalogue.
(§3) Pokewood mitogen was used as a control along with positive and negative controls. Negative control cells were killed with 70% methanol. Positive (+) control cells were incubated in RPMI medium (untreated). […] of AlamarBlue was added to the cells, and readings were taken after 24 hours, 48 hours, 72 hours, and 96 hours using a fluorimeter (excitation 544/transmission 590 nm).
(§4) In choosing a peptide for possible treatment of a given indication it is important to match the therapeutic activity and specificity of the peptide with its possible toxic properties.
(§5) The protocols for WBC and WI38 stimulation have been discussed above. The RBC protocol follows Table 24.

[4] = Leukocyte (WBC) inhibition, toxicity LD50; assay type: cell-based, human; settings: male, human, human leukocytes (buffy coat cells, mostly PBMCs); Table 41, lower part
Protocol: as §1, §2, §3, §4, §5

MCF7 = experiment: Anti-cancer assay, MTT, LD50; assay type: cell-based
Text: Numbers are LD50 values (μg/mL).

[5] = test system: Erwinia caratovora subsp. carotova (EC)
[6] = test system: Pseudomonas syringae pv. tabaci (PSPT)
S. aureus = experiment: Synergy of Shiva-1 and lysozyme, percent viability; assay type: cell-based, Staphylococcus aureus; settings: lysozyme 10×
Protocol: (§6) The percent viability of gram positive S. intermedius 19930, S. intermedius 20034, and S. aureus was determined relative to blank controls.

[7] = test system: Xanthomonas campestris pv. campestris (XC)
Pseudomonas aeruginosa = experiment: Synergy of Shiva-1 and lysozyme, percent viability; assay type: cell-based
Protocol: (§7) The percent viability of Pseudomonas aeruginosa was determined relative to blank controls.

[8] = test system: Pseudomonas solanacearum (PS)
S. intermedius 19930 = experiment: Synergy of Shiva-1 and lysozyme, percent viability; assay type: cell-based, Staphylococcus intermedius
Protocol: as §6

S. intermedius 20034 = experiment: Synergy of Shiva-1 and lysozyme, percent viability; assay type: cell-based, Staphylococcus intermedius; settings: lysozyme 10×
Protocol: as §6

[9] = Synergy of Shiva-1 and lysozyme, percent viability; assay type: cell-based, Staphylococcus aureus; settings: S. aureus
Protocol: as §6

[10] = Synergy of Shiva-1 and lysozyme, percent viability; assay type: cell-based, Pseudomonas aeruginosa; settings: Pseudomonas aeruginosa
Protocol: as §7

[11] = Synergy of Shiva-1 and lysozyme, percent viability; assay type: cell-based, Staphylococcus intermedius
Protocol: as §6

In the case of `CC(C)C[C@H](NC(=O)[C@H](C)NC(=O)[C@H](CC(C)C)NC(=O)[C@H](CCCCN)NC(=O)[C@H](C)NC(=O)[C@H](CC(C)C)NC(=O)[C@H](CCCCN)NC(=O)[C@H](CCCCN)NC(=O)[C@H](C)NC(=O)[C@H](CC(C)C)NC(=O)[C@H](CCCCN)NC(=O)[C@H](C)NC(=O)[C@H](CC(C)C)NC(=O)[C@H](CCCCN)NC(=O)[C@H](CCCCN)NC(=O)[C@H](C)NC(=O)[C@@H](N)C(C)C)C(N)=O` [32 (50)], the CC50 at 24 h (in vitro [1]) is reported as 40 µg/mL (≈ 22.1 µM), the “RBC LD50” value [2] is reported as 420 µg/mL and the HC50 at 1 h (in vitro [3]) is reported as 420 µg/mL. For the same compound, the “WI38 LD50” value (WI38) was 40 µg/mL, the “WBC LD50” value (human leukocytes (WBC)) was 420 µg/mL and the CC50 [4] was 420 µg/mL (≈ 233 µM). For the same compound, the “MCF7 LD50” value (MCF7; Table 41, lower part) was 32 µg/mL and the “MCF7 LD50” value (MCF7; Table 42) was 32 µg/mL.

In the case of `CC(C)C[C@H](NC(=O)[C@H](C)NC(=O)[C@H](CC(C)C)NC(=O)[C@H](CCCCN)NC(=O)[C@H](C)NC(=O)[C@H](CC(C)C)NC(=O)[C@H](CCCCN)NC(=O)[C@H](CCCCN)NC(=O)[C@H](C)NC(=O)[C@H](CC(C)C)NC(=O)[C@H](CCCCN)NC(=O)[C@H](C)NC(=O)[C@H](CC(C)C)NC(=O)[C@H](CCCCN)NC(=O)[C@H](CCCCN)NC(=O)[C@H](C)NC(=O)[C@@H](N)Cc1ccccc1)C(N)=O` [17 (35)], the CC50 at 24 h (in vitro [1]) is reported as 25 µg/mL (≈ 13.5 µM), the “RBC LD50” value [2] is reported as 200 µg/mL and the HC50 at 1 h (in vitro [3]) is reported as 200 µg/mL. The “WI38 LD50” value (WI38) was 25 µg/mL, the “WBC LD50” value (human leukocytes (WBC)) was 25 µg/mL and the CC50 [4] was 25 µg/mL (≈ 13.5 µM). The “MCF7 LD50” value (MCF7; Table 41, lower part) was 9 µg/mL and the “MCF7 LD50” value (MCF7; Table 42) was 9 µg/mL.

With FAKKLAKLAKKLLAL-NH2 [20 (38)] the CC50 at 24 h (in vitro [1]) was 100 µg/mL, the “RBC LD50” value [2] was 350 µg/mL and the HC50 at 1 h (in vitro [3]) was 350 µg/mL. The “WI38 LD50” value (WI38) was 100 µg/mL, the “WBC LD50” value (human leukocytes (WBC)) was 54 µg/mL and the CC50 [4] was 54 µg/mL. The “MCF7 LD50” value (MCF7; Table 41, lower part) was 17 µg/mL and the “MCF7 LD50” value (MCF7; Table 42) was 17 µg/mL.

For Lysozyme, the LD50 [5] was >0.44 (key: > indicates greater than 1000.), the LD50 [6] was >0.19 (key: > indicates greater than 1000.) and the percent viability (S. aureus; peptide concentration 0.01 μM) was 100%. The percent viability (S. aureus; peptide concentration 0.1 μM) was 100%, the percent viability (S. aureus; peptide concentration 0.5 μM) was 100% and the percent viability (S. aureus; peptide concentration 1 μM) was 51.0%. For the same compound, the percent viability (S. aureus; peptide concentration 5 μM) was 18.4%, the percent viability (S. aureus; peptide concentration 10 μM) was 13.3% and the percent viability (S. aureus; peptide concentration 50 μM) was 9.5%. The LD50 [7] was >0.027 (key: > indicates greater than 1000.), the percent viability (Pseudomonas aeruginosa; peptide concentration 0.01 μM, lysozyme at same molar concentration (1×), relative to blank controls) was 100% and the percent viability (Pseudomonas aeruginosa; peptide concentration 0.1 μM, lysozyme 1×) was 82.2%. For the same compound, the percent viability (Pseudomonas aeruginosa; peptide concentration 1 μM, lysozyme 1×) was 52.1%, the percent viability (Pseudomonas aeruginosa; peptide concentration 5 μM, lysozyme 1×) was 7.9% and the percent viability (Pseudomonas aeruginosa; peptide concentration 25 μM, lysozyme 1×) was 0.4%. The LD50 [8] was >16.0 (key: > indicates greater than 1000.), the percent viability (S. intermedius 19930; peptide concentration 0.01 μM, lysozyme at ten times the molar concentration (10×)) was 100% and the percent viability (S. intermedius 19930; peptide concentration 0.1 μM, lysozyme 10×) was 100%. For the same compound, the percent viability (S. intermedius 19930; peptide concentration 0.5 μM, lysozyme 10×) was 81.3%, the percent viability (S. intermedius 19930; peptide concentration 1 μM, lysozyme 10×) was 53% and the percent viability (S. intermedius 19930; peptide concentration 5 μM, lysozyme 10×) was 49.5%. The percent viability (S. intermedius 19930; peptide concentration 10 μM, lysozyme 10×) was 34.4%, the percent viability (S. intermedius 19930; peptide concentration 50 μM, lysozyme 10×) was 22% and the percent viability (S. intermedius 20034; peptide concentration 0.01 μM) was 100%. It also gave a percent viability (S. intermedius 20034; peptide concentration 0.5 μM) of 59.0%, a percent viability (S. intermedius 20034; peptide concentration 5 μM) of 38.3% and a percent viability (S. intermedius 20034; peptide concentration 50 μM) of 10.0%.

For “MPKWKVFKKIEKVGRNIRNGIVKAGPAIAVLGEAKALG-NH2 (C-terminus assumed) [SB-37]”, the LD50 [5] was 1.48 µM, the LD50 [6] was 5.20 µM and the viability at 0.01 µM [9] was 100%. For the same compound, the viability at 0.1 µM [9] was 100%, the viability at 0.5 µM [9] was 81% and the viability at 1 µM [9] was 47.5%. For the same compound, the viability at 5 µM [9] was 31.8%, the viability at 10 µM [9] was 5.6% and the viability at 50 µM [9] was 1.9%. For the same compound, the LD50 [7] was 0.57 µM, the viability at 0.01 µM [10] was 100% and the viability at 0.1 µM [10] was 79.4%. It also gave a viability at 1 µM [10] of 48.8%, a viability at 5 µM [10] of 38.5% and a viability at 25 µM [10] of 0%. It also gave an LD50 [8] of 64.0 µM, a viability at 0.01 µM ([11]; S. intermedius 19930) of 100% and a viability at 0.1 µM ([11]; S. intermedius 19930) of 94.7%. The viability at 0.5 µM ([11]; S. intermedius 19930) was 69.4%, the viability at 1 µM ([11]; S. intermedius 19930) was 42.5% and the viability at 5 µM ([11]; S. intermedius 19930) was 36.1%. The viability at 10 µM ([11]; S. intermedius 19930) was 5.6%, the viability at 50 µM ([11]; S. intermedius 19930) was 0% and the viability at 0.01 µM ([11]; S. intermedius 20034) was 100%. It also gave a viability at 0.5 µM ([11]; S. intermedius 20034) of 68%, a viability at 5 µM ([11]; S. intermedius 20034) of 35.1% and a viability at 50 µM ([11]; S. intermedius 20034) of 0%.
